Results on 10 compounds are retold here after ChEMBL document CHEMBL1121503, “Estrogen receptor based imaging agents. 2. Synthesis and receptor binding affinity of side-chain halogenated hexestrol derivatives” (J Med Chem, 1980).

This assay concerns the target Estrogen receptor (Ovis aries) (UniProt P49885+Q9TU15).
Compound `CCC(c1ccc(O)cc1)C(CCCl)c1ccc(O)cc1` (stereo not given) gave an RAC of 113. To `Oc1ccc(C(=C2CCCCC2)c2ccc(O)cc2)cc1` belongs 32; to `CC[C@H](c1ccc(O)cc1)[C@@H](CC)c1ccc(O)cc1`, 300.

Consider `Oc1ccc(C(=C(C(F)(F)F)C(F)(F)F)c2ccccc2)cc1`, for which the RAC came to 21. `CCC(c1ccc(O)cc1)C(CCI)c1ccc(O)cc1` (stereo not given) had an RAC of 60.

In turn, `CCC(c1ccc(O)cc1)C(CCBr)c1ccc(O)cc1` (stereo not given) had an RAC of 71. In turn, `C/C(=C(/C)c1ccc(O)cc1)c1ccc(O)cc1` yielded an RAC of 20.

`Oc1ccc(/C(=C(/c2ccc(O)cc2)C(F)(F)F)C(F)(F)F)cc1` registered an RAC of 48. As for `Oc1ccc(/C(=C(/c2ccccc2)C(F)(F)F)C(F)(F)F)cc1`, the figure is 10; as for `CCC(c1ccc(O)cc1)C(CCF)c1ccc(O)cc1` (stereo not given), 129.
